Data reported in patent US20200163984A1, “USE OF ISOVALERYL SPIRAMYCIN I, II AND/OR III IN MANUFACTURING MEDICAMENT FOR TREATING AND/OR PREVENTING TUMOR, AND MEDICAMENT” (SHENYANG FUYANG PHARMACEUTICAL TECHNOLOGY CO., LTD., priority 2017, published 2020).
Converted amounts (≈) assume the structure as drawn.

Columns and labels:
[1] = system: spleen lymphocytes (ConA, LPS stimulation); assay: Spleen lymphocyte proliferation activity of Lewis lung cancer tumor-bearing mice; assay type: in vivo, C57BL/6 mouse; conditions: for lymphocyte activity compared with the control group: Lewis tumor-bearing mice; for B Lymphocyte Proliferation Activity (%) / T Lymphocyte Proliferation Activity (%): n = 6
Method: In the Lewis lung cancer model, the mice inoculated with the tumor were randomly divided into groups with 10 mice in each group the next day of inoculation. The groups included: a model control group, a positive drug cyclophosphamide control group (CTX, 30 mg/kg), isovaleryl spiramycin I groups with doses of 13, 26 and 52 mg/kg; isovaleryl spiramycin II groups with doses of 13, 26 and 52 mg/kg; isovaleryl spiramycin III groups with doses of 13, 26 and 52 mg/kg. Each group was continuously administered intragastrically for 15 days with a dose of 20 ml/kg.
The serum-free RPMI 1640 medium was placed in a dish, and then the dish was placed on ice. The spleen was aseptically taken and gently ground with a sterile glass slide to prepare a single cell suspension. The single cell suspension was filtered with a double-layer sterile gauze, washed twice with serum-free RPMI1640 medium, and centrifuged at 1,500 rpm for 5 min to remove the obtained supernatant. 2 mL of red blood cell lysate was added to the treated suspension, the mixture was allowed to stand for 2 min, and then 8 mL of RPMI 1640 medium was added, centrifuging was performed at 1,500 rpm for 5 min to remove the obtained supernatant, and then washing was performed twice with the RPMI 1640 medium. […] A single cell suspension was prepared by using a RPMI 1640 medium containing 10% fetal bovine serum.
The spleen cell suspension was taken, and the cell density was adjusted to 1×10^7/mL. Each mouse was set with: A. a control well: 100 μL of RPMI 1640 medium was added; B. a concanavalin A (ConA) stimulation well: 100 μL (10 mg/L) of concanavalin A (ConA) solution was added; and C. a bacterial endotoxin (LPS) stimulating well: 100 μL (20 mg/L) of bacterial endotoxin (LPS) solution was added. The above cells were added to a 96-well plate, and then 100 μL of spleen cell suspension was added to each of the above wells. After the culture plate was transferred to a saturated humidity condition with a volume fraction of 5% CO2 at 37° C. for incubation for 72 h, 10 μL of MTT solution (5 g/L) was added to each well, and incubation was continued to be performed for 4 hours under the same conditions, then the culture was terminated. 100 μl of a triple solution (SDS 10 g, 10M HCl 0.1 mL, […] 5 mL, diluted with distilled water to 100 mL) was added, and the plate was shaken for 10 min to fully dissolve the crystals. The Optical Density (OD) of each well was measured at 570 nm, and the lymphocyte proliferation rate was calculated. Lymphocyte proliferation rate (%)=[(T-C)/C]×100%, wherein T was the Optical Density of the stimulation well, and C is the Optical Density of the control well.

[2] = system: human hepatoma cells HepG2; conditions: HepG2, MTT, 48 hours
Method: (§1) The purpose of the assay is to evaluate the in vitro cell proliferation inhibition or cytotoxic activity of a tested sample.
(§2) MCF-7, MDA-MB-231, HepG2, A549, H460, H1299, 786-0, 769-P, U251, A172, HeLa, PC3, PANC-1, TE-1, SGC7901, and HT-29 were adherent tumor cells. The adherent tumor cells in the logarithmic growth phase were selected and digested with trypsin, then were prepared into a 4 to 5×10^4/ml cell suspension by a medium containing 10% fetal bovine serum. And the cell suspension was inoculated in a 96-well culture plate, and each well was 100 μL. The 96-well culture plate was cultured at 37° C. and 5% CO2 for 24 hours. The experimental group was replaced with a new culture medium containing different concentrations of the sample to be tested, namely, isovaleryl spiramycin I, isovaleryl spiramycin II, or isovaleryl spiramycin III, while the control group was replaced with a culture medium containing the same volume of solvent. Each group was set up with 3 parallel wells that were cultured at 37° C. and 5% CO2 for 48 hours. After the supernatant was removed, the wells were washed carefully for 3 times with PBS. And 100 μL of freshly prepared culture medium containing 0.5 mg/ml MTT was added to each well for continuous incubation for 4 hours at 37° C. After the supernatant was removed carefully, 150 μL of DMSO was added to each well, and after the material was mixed for 10 minutes with a micro-oscillator, the optical density value was measured at 492 nm with a microplate reader.
(§3) The inhibition rate of the medicament on tumor cell growth is calculated according to the following formula:
(§4) Tumor cell growth inhibition rate (%)=[A492 (negative control)−A492 (dosing group)]/A492 (negative control)×100%
(§5) And the half-inhibitory concentration (IC50) of the sample is determined therefrom.

[3] = system: human large cell lung cancer cells H460; conditions: H460, MTT, 48 hours
Method: as §1, §2, §3, §4, §5

[4] = system: human renal clear cell adenocarcinoma cell 786-O; conditions: MTT, 48 hours
Method: as §1, §2, §3, §4, §5

[5] = system: human glioblastoma cell A172; conditions: A172, MTT, 48 hours
Method: as §1, §2, §3, §4, §5

[6] = system: human prostate cancer cell PC3; conditions: PC3, MTT, 48 hours
Method: as §1, §2, §3, §4, §5

[7] = system: human esophageal cancer cell TE-1; conditions: TE-1, MTT, 48 hours
Method: as §1, §2, §3, §4, §5

[8] = system: human non-small cell lung cancer cells A549; conditions: A549, MTT, 48 hours
Method: as §1, §2, §3, §4, §5

[9] = system: human breast cancer cells MDA-MB-231; conditions: MDA-MB-231, MTT, 48 hours
Method: as §1, §2, §3, §4, §5

[10] = system: human cervical cancer cell HeLa; conditions: MTT, 48 hours
Method: as §1, §2, §3, §4, §5

[11] = system: human large cell lung cancer cells H1299; conditions: H1299, MTT, 48 hours
Method: as §1, §2, §3, §4, §5

human glioma cell U251 = conditions: U251, MTT, 48 hours
Method: as §1, §2, §3, §4, §5

[12] = system: human colon cancer cell HT-29; conditions: HT-29, MTT, 48 hours
Method: as §1, §2, §3, §4, §5

[13] = system: human breast cancer cells MCF-7; conditions: MCF-7, MTT, 48 hours
Method: as §1, §2, §3, §4, §5

[14] = system: human pancreatic cancer cell PANC-1; conditions: PANC-1, MTT, 48 hours
Method: as §1, §2, §3, §4, §5

[15] = system: human gastric adenocarcinoma cell SGC7901; conditions: SGC-7901, MTT, 48 hours
Method: as §1, §2, §3, §4, §5

[16] = 13, 26 and 52 mg/kg, P<0.05, P<0.01

Row | SMILES | lymphocyte activity compared with the control group [1, 16] | B Lymphocyte Proliferation Activity (%) ([1]; dose 13 mg/kg) | T Lymphocyte Proliferation Activity (%) ([1]; dose 13 mg/kg) | B Lymphocyte Proliferation Activity (%) ([1]; dose 26 mg/kg) | T Lymphocyte Proliferation Activity (%) ([1]; dose 26 mg/kg) | B Lymphocyte Proliferation Activity (%) ([1]; dose 52 mg/kg) | T Lymphocyte Proliferation Activity (%) ([1]; dose 52 mg/kg) | IC50 [2] | IC50 [3] | IC50 [4] | IC50 [5] | IC50 [6] | IC50 [7] | IC50 [8] | IC50 [9] | IC50 [10] | IC50 [11] | IC50 (human glioma cell U251) | IC50 [12] | IC50 [13] | other results
1 | CCC(=O)O[C@@H]1CC(=O)O[C@H](C)C/C=C/C=C/[C@H](O[C@H]2CC[C@H](N(C)C)[C@@H](C)O2)[C@H](C)C[C@H](CC=O)[C@H](O[C@@H]2O[C@H](C)[C@@H](O[C@H]3C[C@@](C)(O)[C@@H](OC(=O)CC(C)C)[C@H](C)O3)[C@H](N(C)C)[C@H]2O)[C@H]1OC [Isovaleryl spiramycin III, isovaleryl spiramycin III] | significantly increase | 33.91 ± 2.65% | 20.17 ± 5.18% | 34.69 ± 0.34% | 18.51 ± 2.60% | 32.28 ± 1.27% | 18.25 ± 1.89% | 27.42 ± 3.52 µg/mL (≈ 27.9 µM) | 28.80 ± 0.19 µg/mL (≈ 29.3 µM) | 10.52 ± 0.56 µg/mL (≈ 10.7 µM) | 16.17 ± 0.54 µg/mL (≈ 16.4 µM) | 16.37 ± 0.27 µg/mL (≈ 16.6 µM) | 20.19 ± 1.83 µg/mL (≈ 20.5 µM) | 28.84 ± 1.73 µg/mL (≈ 29.3 µM) | 29.47 ± 0.28 µg/mL (≈ 30 µM) | 15.86 ± 0.62 µg/mL (≈ 16.1 µM) | 32.40 ± 0.41 µg/mL (≈ 33 µM) | 16.46 ± 1.54 µg/mL (≈ 16.7 µM) | 22.68 ± 2.32 µg/mL (≈ 23.1 µM) | 32.44 ± 1.18 µg/mL (≈ 33 µM) | IC50 [14]: 13.18 ± 0.23 µg/mL (≈ 13.4 µM); IC50 [15]: 17.26 ± 0.79 µg/mL (≈ 17.6 µM)
2 | CO[C@@H]1[C@@H](O[C@@H]2O[C@H](C)[C@@H](O[C@H]3C[C@@](C)(O)[C@@H](OC(=O)CC(C)C)[C@H](C)O3)[C@H](N(C)C)[C@H]2O)[C@@H](CC=O)C[C@@H](C)[C@@H](O[C@H]2CC[C@H](N(C)C)[C@@H](C)O2)/C=C/C=C/C[C@@H](C)OC(=O)C[C@H]1O [Isovaleryl spiramycin I, isovaleryl spiramycin I] | significantly increase | 41.63 ± 7.06 % | 25.27 ± 8.20 % | 44.81 ± 4.41 % | 36.24 ± 2.15 % | 32.71 ± 1.84% | 22.26 ± 4.33% | 17.90 ± 1.74 µg/mL (≈ 19.3 µM) | 19.31 ± 0.35 µg/mL (≈ 20.8 µM) | 5.08 ± 0.08 µg/mL (≈ 5.48 µM) | 10.24 ± 0.37 µg/mL (≈ 11 µM) | 9.39 ± 0.85 µg/mL (≈ 10.1 µM) | 8.42 ± 1.53 µg/mL (≈ 9.08 µM) | 19.93 ± 1.66 µg/mL (≈ 21.5 µM) | 18.12 ± 0.61 µg/mL (≈ 19.5 µM) | 10.31 ± 0.27 µg/mL (≈ 11.1 µM) | 24.03 ± 2.07 µg/mL (≈ 25.9 µM) | 11.01 ± 0.32 µg/mL (≈ 11.9 µM) | 17.30 ± 0.52 µg/mL (≈ 18.7 µM) | 20.79 ± 1.57 µg/mL (≈ 22.4 µM) | IC50 [14]: 9.96 ± 0.46 µg/mL (≈ 10.7 µM); IC50 [15]: 11.28 ± 1.27 µg/mL (≈ 12.2 µM)
3 | O=P1(N(CCCl)CCCl)NCCCO1 (stereo not drawn) [Cyclophosphamide, cyclophosphamide, reference compound] | – | – | – | 11.63 ± 4.68 % | 13.24 ± 3.72 % | – | – | – | – | – | – | – | – | – | – | – | – | – | – | – | lymphocyte activity compared with the control group ([1]; cyclophosphamide, P<0.05): significantly inhibited
4 | COC1C(OC(C)=O)CC(=O)OC(C)CC=CC=CC(OC2CCC(N(C)C)C(C)O2)C(C)CC(CC=O)C1OC1OC(C)C(OC2CC(C)(O)C(OC(=O)CC(C)C)C(C)O2)C(N(C)C)C1O (stereo not drawn) [Isovaleryl spiramycin II, isovaleryl spiramycin II] | significantly increase | 39.88 ± 3.57% | 16.87 ± 3.28% | 32.68 ± 2.68% | 15.82 ± 1.68% | 35.94 ± 3.80% | 19.28 ± 2.35% | 37.94 ± 1.71 µg/mL (≈ 39.1 µM) | 41.16 ± 0.71 µg/mL (≈ 42.5 µM) | 20.18 ± 0.86 µg/mL (≈ 20.8 µM) | 33.62 ± 0.57 µg/mL (≈ 34.7 µM) | 32.88 ± 0.53 µg/mL (≈ 33.9 µM) | 35.59 ± 2.64 µg/mL (≈ 36.7 µM) | 36.97 ± 2.92 µg/mL (≈ 38.1 µM) | 49.60 ± 0.39 µg/mL (≈ 51.2 µM) | 33.31 ± 0.40 µg/mL (≈ 34.4 µM) | 42.24 ± 0.44 µg/mL (≈ 43.6 µM) | 35.35 ± 1.57 µg/mL (≈ 36.5 µM) | 31.05 ± 3.23 µg/mL (≈ 32 µM) | 51.14 ± 2.54 µg/mL (≈ 52.8 µM) | IC50 [14]: 31.93 ± 0.12 µg/mL (≈ 32.9 µM); IC50 [15]: 39.14 ± 1.21 µg/mL (≈ 40.4 µM)
